Laboratory results: patent publication US10195196B2, “1,4-disubstituted pyridazine analogs there of and methods for treating SMN-deficiency-related conditions” (NOVARTIS AG, priority 2012, dated 2019)

Test system: SMN protein
Test: cellular SMN ELISA (SMN protein elevation)
Assay type: cell-based
Settings: ELISA condition 2: compound concentration 100 pM-10 uM, myoblast cell line from SMNdelta7 mouse model, 24 hours treatment; for SMN activity Fold: fold activation over DMSO control
Method in brief: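 Readout is fold SMN elevation versus DMSO plus EC50, measured by anti-SMN capture ELISA with 450 nm absorbance. Lysates came from a myoblast line of the SMNdelta7 mouse model after 24 h compound exposure, with dose ranges of 20 nM–10 μM (condition 1) or 100 pM–10 μM (condition 2).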

Row | Structure (SMILES) | EC50 | SMN activity Fold
1 | CN(c1ccc(-c2c(O)cc(-c3ccn(C)c(=O)c3)cc2F)nn1)C1CC(C)(C)NC(C)(C)C1 [Example 40-3, 4-(3-fluoro-5-hydroxy-4-(6-(methyl(2,2,6,6-tetramethylpiperidin-4-yl)amino)pyridazin-3-yl)phenyl)-1-methylpyridin-2(1H)-one] | 11 nM | 3.03 Fold
2 | CN(c1ccc(-c2c(O)cc(-c3ccc(=O)n(C)c3)cc2F)nn1)C1CC(C)(C)NC(C)(C)C1 [Example 40-4, 5-(3-fluoro-5-hydroxy-4-(6-(methyl(2,2,6,6-tetramethylpiperidin-4-yl)amino)pyridazin-3-yl)phenyl)-1-methylpyridin-2(1H)-one] | 15 nM | 2.14 Fold
3 | CC1(C)CC(Oc2ccc(-c3c(O)cc(-c4cn[nH]c4)cc3F)nn2)CC(C)(C)N1 [Example 40-5, 3-fluoro-5-(1H-pyrazol-4-yl)-2-(6-((2,2,6,6-tetramethylpiperidin-4-yl)oxy)pyridazin-3-yl)phenol] | 17 nM | 3.59 Fold
4 | CN(c1ccc(-c2c(O)cc(Cl)cc2F)nn1)C1CC(C)(C)NC(C)(C)C1 [Example 40-6, 5-chloro-3-fluoro-2-(6-(methyl(2,2,6,6-tetramethylpiperidin-4-yl)amino)pyridazin-3-yl)phenol] | 208 nM | 2.16 Fold
5 | CN(c1ccc(-c2c(O)cc(-c3cn[nH]c3)cc2F)nn1)C1CC(C)(C)NC(C)(C)C1 [Example 40-7, 3-fluoro-2-(6-(methyl(2,2,6,6-tetramethylpiperidin-4-yl)amino)pyridazin-3-yl)-5-(1H-pyrazol-4-yl)phenol] | 4 nM | 2.80 Fold
6 | CN(c1ccc(-c2c(O)cc(-c3cnn(C)c3)cc2F)nn1)C1CC(C)(C)NC(C)(C)C1 [Example 40-8, 3-fluoro-2-(6-(methyl(2,2,6,6-tetramethylpiperidin-4-yl)amino)pyridazin-3-yl)-5-(1-methyl-1H-pyrazol-4-yl)phenol] | 16 nM | 3.18 Fold
7 | COc1cncc(-c2ccc(-c3ccc(N(C)C4CC(C)(C)NC(C)(C)C4)nn3)c(O)c2)c1 [Example 41-1, 5-(5-methoxypyridin-3-yl)-2-(6-(methyl(2,2,6,6-tetramethylpiperidin-4-yl)amino)pyridazin-3-yl)phenol] | 125 nM | 2.78 Fold
8 | CN(c1ccc(-c2ccc(-c3ccc(O)nc3)cc2O)nn1)C1CC(C)(C)NC(C)(C)C1 [Example 41-2] | 50 nM | 2.68 Fold
9 | CN(c1ccc(-c2ccc(-c3ccnc(O)c3)cc2O)nn1)C1CC(C)(C)NC(C)(C)C1 [Example 41-3] | 66 nM | 3.10 Fold
10 | COc1ccc(-c2ccc(-c3ccc(N(C)C4CC(C)(C)NC(C)(C)C4)nn3)c(O)c2)cn1 [Example 41-4, 5-(6-methoxypyridin-3-yl)-2-(6-(methyl(2,2,6,6-tetramethylpiperidin-4-yl)amino)pyridazin-3-yl)phenol] | 80 nM | 3.29 Fold
11 | CN(c1ccc(-c2ccc(-c3cnc(O)c(C(F)(F)F)c3)cc2O)nn1)C1CC(C)(C)NC(C)(C)C1 [Example 41-5, 5-(3-hydroxy-4-(6-(methyl(2,2,6,6-tetramethylpiperidin-4-yl)amino)pyridazin-3-yl)phenyl)-3-(trifluoromethyl)pyridin-2-ol] | 175 nM | 2.88 Fold
12 | CN(c1ccc(-c2ccc(-c3ccc(=O)n(C)c3)cc2O)nn1)C1CC(C)(C)NC(C)(C)C1 [Example 41-6, 5-(3-hydroxy-4-(6-(methyl(2,2,6,6-tetramethylpiperidin-4-yl)amino)pyridazin-3-yl)phenyl)-1-methylpyridin-2(1H)-one] | 10 nM | 2.67 Fold
13 | CN(c1ccc(-c2ccc(-c3ccn(C)c(=O)c3)cc2O)nn1)C1CC(C)(C)NC(C)(C)C1 [Example 41-7, 4-(3-hydroxy-4-(6-(methyl(2,2,6,6-tetramethylpiperidin-4-yl)amino)pyridazin-3-yl)phenyl)-1-methylpyridin-2(1H)-one] | 7 nM | 2.87 Fold
14 | COc1cc(-c2ccc(-c3ccc(N(C)C4CC(C)(C)NC(C)(C)C4)nn3)c(O)c2)ccn1 [Example 41-8, 5-(2-methoxypyridin-4-yl)-2-(6-(methyl(2,2,6,6-tetramethylpiperidin-4-yl)amino)pyridazin-3-yl)phenol] | 62 nM | 3.18 Fold
15 | CC1(C)CC(Oc2ccc(-c3ccc(-c4ccnc(O)c4)cc3O)nn2)CC(C)(C)N1 [Example 41-9, 4-(3-hydroxy-4-(6-((2,2,6,6-tetramethylpiperidin-4-yl)oxy)pyridazin-3-yl)phenyl)pyridin-2-ol] | 72 nM | 4.2 Fold
16 | CN(C)c1ccc(-c2ccc(-c3ccc(N(C)C4CC(C)(C)NC(C)(C)C4)nn3)c(O)c2)cn1 [Example 41-10, 5-(6-(dimethylamino)pyridin-3-yl)-2-(6-(methyl(2,2,6,6-tetramethylpiperidin-4-yl)amino)pyridazin-3-yl)phenol] | 59 nM | 2.80 Fold
17 | Cn1ccc(-c2ccc(-c3ccc(OC4CC(C)(C)NC(C)(C)C4)nn3)c(O)c2)cc1=O [Example 41-11, 4-(3-hydroxy-4-(6-((2,2,6,6-tetramethylpiperidin-4-yl)oxy)pyridazin-3-yl)phenyl)-1-methylpyridin-2(1H)-one] | 12 nM | 2.78 Fold
18 | CN(c1ccc(-c2ccc(-c3cncnc3)cc2O)nn1)C1CC(C)(C)NC(C)(C)C1 [Example 41-12, 2-(6-(methyl(2,2,6,6-tetramethylpiperidin-4-yl)amino)pyridazin-3-yl)-5-(pyrimidin-5-yl)phenol] | 103 nM | 2.92 Fold
19 | CN(c1ccc(-c2ccc(-c3cncc(O)c3)cc2O)nn1)C1CC(C)(C)NC(C)(C)C1 [Example 41-13, 5-(3-hydroxy-4-(6-(methyl(2,2,6,6-tetramethylpiperidin-4-yl)amino)pyridazin-3-yl)phenyl)pyridin-3-ol] | 308 nM | 3.50 Fold
20 | CN(c1ccc(-c2ccc(-c3ccn(C4CC4)c(=O)c3)cc2O)nn1)C1CC(C)(C)NC(C)(C)C1 [Example 41-14, 1-cyclopropyl-4-(3-hydroxy-4-(6-(methyl(2,2,6,6-tetramethylpiperidin-4-yl)amino)pyridazin-3-yl)phenyl)pyridin-2(1H)-one] | 84 nM | 3.21 Fold
21 | CN(c1ccc(-c2ccc(C3=CCNCC3)cc2O)nn1)C1CC(C)(C)NC(C)(C)C1 [Example 41-15, 2-(6-(methyl(2,2,6,6-tetramethylpiperidin-4-yl)amino)pyridazin-3-yl)-5-(1,2,3,6-tetrahydropyridin-4-yl)phenol] | 145 nM | 2.56 Fold
22 | CN(c1ccc(-c2ccc(C3=CCCC3)cc2O)nn1)C1CC(C)(C)NC(C)(C)C1 [Example 41-16, 5-(cyclopent-1-en-1-yl)-2-(6-(methyl(2,2,6,6-tetramethylpiperidin-4-yl)amino)pyridazin-3-yl)phenol] | 62 nM | 2.30 Fold
23 | CN(c1ccc(-c2ccc(C3=CCOCC3)cc2O)nn1)C1CC(C)(C)NC(C)(C)C1 [Example 41-17, 5-(3,6-dihydro-2H-pyran-4-yl)-2-(6-(methyl(2,2,6,6-tetramethylpiperidin-4-yl)amino)pyridazin-3-yl)phenol] | 170 nM | 2.88 Fold
24 | CN(c1ccc(-c2ccc(-c3ccn4cncc4c3)cc2O)nn1)C1CC(C)(C)NC(C)(C)C1 [Example 41-18, 5-(imidazo[1,5-a]pyridin-7-yl)-2-(6-(methyl(2,2,6,6-tetramethylpiperidin-4-yl)amino)pyridazin-3-yl)phenol] | 17 nM | 2.44 Fold
25 | CN(c1ccc(-c2ccc(-c3ccn4ccnc4c3)cc2O)nn1)C1CC(C)(C)NC(C)(C)C1 [Example 41-19, 5-(imidazo[1,2-a]pyridin-7-yl)-2-(6-(methyl(2,2,6,6-tetramethylpiperidin-4-yl)amino)pyridazin-3-yl)phenol] | 17 nM | 2.62 Fold
26 | Cc1cc(-c2ccc(-c3ccc(N(C)C4CC(C)(C)NC(C)(C)C4)nn3)c(O)c2)ccn1 [Example 41-20, 2-(6-(methyl(2,2,6,6-tetramethylpiperidin-4-yl)amino)pyridazin-3-yl)-5-(2-methylpyridin-4-yl)phenol] | 32 nM | 2.63 Fold
27 | CN(c1ccc(-c2ccc(-c3ncc[nH]3)cc2O)nn1)C1CC(C)(C)NC(C)(C)C1 [Example 42-1, 5-(1H-imidazol-2-yl)-2-(6-(methyl(2,2,6,6-tetramethylpiperidin-4-yl)amino)pyridazin-3-yl)phenol] | 117 nM | 2.28 Fold
28 | CN(c1ccc(-c2ccc(-c3c[nH]cn3)cc2O)nn1)C1CC(C)(C)NC(C)(C)C1 [Example 42-2, 5-(1H-imidazol-4-yl)-2-(6-(methyl(2,2,6,6-tetramethylpiperidin-4-yl)amino)pyridazin-3-yl)phenol] | 26 nM | 2.06 Fold
29 | CN(c1ccc(-c2ccc(-c3cnc4cnccn34)cc2O)nn1)C1CC(C)(C)NC(C)(C)C1 [Example 42-3, 5-(imidazo[1,2-a]pyrazin-3-yl)-2-(6-(methyl(2,2,6,6-tetramethylpiperidin-4-yl)amino)pyridazin-3-yl)phenol] | 99 nM | 2.92 Fold
30 | CN(c1ccc(-c2ccc(-c3cnc4n3CCNC4)cc2O)nn1)C1CC(C)(C)NC(C)(C)C1 [Example 42-4, 2-(6-(methyl(2,2,6,6-tetramethylpiperidin-4-yl)amino)pyridazin-3-yl)-5-(5,6,7,8-tetrahydroimidazo[1,2-a]pyrazin-3-yl)phenol] | 853 nM | 2.41 Fold
